Data published in patent publication US20160083357A1, “NOVEL TETRAZOLONE DERIVATIVES” (Hoffmann-La Roche Inc., priority 2013, published 2016).
pEC50: −log10 of the molar value. Read-outs that look alike come from different tables or passages of the source.

Tests used:
[1] = target: T1, human CB2 receptors (Homo sapiens, UniProt P34972); test: cAMP assay, human CB2; type: cell-based
T1 construct: expressed in transfected cells; host or cells: CHO cells
In short: (§1)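 CHO cells expressing human CB1 or CB2, preincubated in Krebs Ringer bicarbonate with 1 mM IBMX, then compound for 30 min at 30° C. cAMP quantified by time-resolved FRET (cAMP-Nano-TRF) against a cAMP standard curve; EC50 values derived.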

[2] = target: T2, human CB1 receptors (Homo sapiens, UniProt P21554); test: cAMP assay, human CB1; type: cell-based
T2 construct: expressed in transfected cells; host or cells: CHO cells
In short: as §1

[3] = functional cAMP assay, CHO cells expressing human CB2, read-out: Ec50: CB2 - hu cAMP
[4] = functional cAMP assay, CHO cells expressing human CB1, read-out: Ec50: CB1 - hu cAMP

T2 sequence (P21554 whole entry): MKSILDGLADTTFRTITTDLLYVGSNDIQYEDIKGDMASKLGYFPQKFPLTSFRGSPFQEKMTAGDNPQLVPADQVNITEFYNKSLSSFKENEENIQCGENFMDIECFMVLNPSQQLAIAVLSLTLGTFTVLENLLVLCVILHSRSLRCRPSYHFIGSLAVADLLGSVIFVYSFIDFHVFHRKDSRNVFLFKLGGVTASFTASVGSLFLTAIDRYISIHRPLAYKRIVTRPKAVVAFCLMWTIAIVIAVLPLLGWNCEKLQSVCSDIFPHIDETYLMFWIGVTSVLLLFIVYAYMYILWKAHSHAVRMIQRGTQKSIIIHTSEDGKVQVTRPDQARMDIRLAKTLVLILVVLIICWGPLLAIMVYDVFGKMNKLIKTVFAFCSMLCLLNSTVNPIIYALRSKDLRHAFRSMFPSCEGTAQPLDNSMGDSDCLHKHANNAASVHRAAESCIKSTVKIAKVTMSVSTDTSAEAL
T1 sequence (P34972 whole entry): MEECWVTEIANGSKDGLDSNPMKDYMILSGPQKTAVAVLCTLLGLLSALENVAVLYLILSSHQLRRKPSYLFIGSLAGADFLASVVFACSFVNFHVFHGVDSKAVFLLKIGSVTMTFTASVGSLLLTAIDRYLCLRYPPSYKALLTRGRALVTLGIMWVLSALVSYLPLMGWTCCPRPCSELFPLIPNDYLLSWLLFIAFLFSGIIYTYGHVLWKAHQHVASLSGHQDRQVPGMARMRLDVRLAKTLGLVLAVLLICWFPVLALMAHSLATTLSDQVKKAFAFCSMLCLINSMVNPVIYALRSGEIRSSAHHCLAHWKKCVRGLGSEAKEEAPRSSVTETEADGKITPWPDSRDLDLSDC

SMILES | pEC50 [1, 3] | pEC50 [2, 4] | pEC50 [1] | pEC50 [2]
O=C(CN1CCN(C(=O)n2nnn(-c3ccc(Cl)cc3)c2=O)CC1)N1CCOCC1 [Example 91, 1-(4-Chloro-phenyl)-4-[4-(2-morpholin-4-yl-2-oxo-ethyl)-piperazine-1-carbonyl]-1,4-dihydro-tetrazol-5-one] | 7.37 | < 5.00 |  | 
CN(C)C(=O)CN1CCN(C(=O)n2nnn(-c3cccc(Cl)c3)c2=O)CC1 [Example 92, 2-{4-[4-(3-Chloro-phenyl)-5-oxo-4,5-dihydro-tetrazole-1-carbonyl]-piperazin-1-yl}-N,N-dimethyl-acetamide] | 7.79 | < 5.00 |  | 
CN(C)C(=O)CN1CCN(C(=O)n2nnn(-c3cccc(OC(F)(F)F)c3)c2=O)CC1 [Example 93, N,N-Dimethyl-2-{4-[5-oxo-4-(3-trifluoromethoxy-phenyl)-4,5-dihydro-tetrazole-1-carbonyl]-piperazin-1-yl}-acetamide] | 7.62 | < 5.00 |  | 
CN(C)C(=O)CN1CCN(C(=O)n2nnn(-c3ccc(Cl)cc3)c2=O)CC1 [Example 94, 2-{4-[4-(4-Chloro-phenyl)-5-oxo-4,5-dihydro-tetrazole-1-carbonyl]-piperazin-1-yl}-N,N-dimethyl-acetamide] | 7.68 | < 5.00 |  | 
O=C(CN1CCN(C(=O)n2nnn(-c3cccc(Cl)c3)c2=O)CC1)N1CCCC1 [Example 95, 1-(3-Chloro-phenyl)-4-[4-(2-oxo-2-pyrrolidin-1-yl-ethyl)-piperazine-1-carbonyl]-1,4-dihydro-tetrazol-5-one] | 8.33 | < 5.00 |  | 
O=C(CN1CCN(C(=O)n2nnn(-c3cccc(OC(F)(F)F)c3)c2=O)CC1)N1CCCC1 [Example 96, 1-[4-(2-Oxo-2-pyrrolidin-1-yl-ethyl)-piperazine-1-carbonyl]-4-(3-trifluoromethoxy-phenyl)-1,4-dihydro-tetrazol-5-one] | 7.74 | < 5.00 |  | 
O=C(CN1CCN(C(=O)n2nnn(-c3ccc(Cl)cc3)c2=O)CC1)N1CCCC1 [Example 97, 1-(4-Chloro-phenyl)-4-[4-(2-oxo-2-pyrrolidin-1-yl-ethyl)-piperazine-1-carbonyl]-1,4-dihydro-tetrazol-5-one] | 7.89 | < 5.00 |  | 
CCOCCN(CC)C(=O)n1nnn(-c2cccc(Cl)c2)c1=O [Example 98, 4-(3-Chloro-phenyl)-5-oxo-4,5-dihydro-tetrazole-1-carboxylic acid (2-ethoxy-ethyl)-ethyl-amide] |  |  | 8.74 | < 5.00
CCOCCN(CC)C(=O)n1nnn(-c2cccc(OC(F)(F)F)c2)c1=O [Example 99, 5-Oxo-4-(3-trifluoromethoxy-phenyl)-4,5-dihydro-tetrazole-1-carboxylic acid (2-ethoxy-ethyl)-ethyl-amide] | 7.90 | < 5.00 |  | 
CCOCCN(CC)C(=O)n1nnn(-c2ccc(Cl)cc2)c1=O [Example 100, 4-(4-Chloro-phenyl)-5-oxo-4,5-dihydro-tetrazole-1-carboxylic acid (2-ethoxy-ethyl)-ethyl-amide] |  |  | 8.77 | < 5.00
O=C(N1CCOCC1)n1nnn(-c2cccc(Cl)c2)c1=O [Example 101, 1-(3-Chloro-phenyl)-4-(morpholine-4-carbonyl)-1,4-dihydro-tetrazol-5-one] | 8.49 | < 5.00 |  | 
O=C(N1CCOCC1)n1nnn(-c2cccc(OC(F)(F)F)c2)c1=O [Example 102, 1-(Morpholine-4-carbonyl)-4-(3-trifluoromethoxy-phenyl)-1,4-dihydro-tetrazol-5-one] | 8.36 | < 5.00 |  | 
O=C(N1CCOCC1)n1nnn(-c2ccc(Cl)cc2)c1=O [Example 103, 1-(4-Chloro-phenyl)-4-(morpholine-4-carbonyl)-1,4-dihydro-tetrazol-5-one] | 8.35 | < 5.00 |  | 
CCNC(=O)CN1CCN(C(=O)n2nnn(-c3cccc(Cl)c3)c2=O)CC1 [Example 104, 2-{4-[4-(3-Chloro-phenyl)-5-oxo-4,5-dihydro-tetrazole-1-carbonyl]-piperazin-1-yl}-N-ethyl-acetamide] | 7.90 | < 5.00 |  | 
CCNC(=O)CN1CCN(C(=O)n2nnn(-c3cccc(OC(F)(F)F)c3)c2=O)CC1 [Example 105, N-Ethyl-2-{4-[5-oxo-4-(3-trifluoromethoxy-phenyl)-4,5-dihydro-tetrazole-1-carbonyl]-piperazin-1-yl}-acetamide] | 7.70 | < 5.00 |  | 
CCNC(=O)CN1CCN(C(=O)n2nnn(-c3ccc(Cl)cc3)c2=O)CC1 [Example 106, 2-{4-[4-(4-Chloro-phenyl)-5-oxo-4,5-dihydro-tetrazole-1-carbonyl]-piperazin-1-yl}-N-ethyl-acetamide] | 7.97 | < 5.00 |  | 
CCCCNC(=O)CN1CCN(C(=O)n2nnn(-c3cccc(Cl)c3)c2=O)CC1 [Example 107, N-Butyl-2-{4-[4-(3-chloro-phenyl)-5-oxo-4,5-dihydro-tetrazole-1-carbonyl]-piperazin-1-yl}-acetamide] | 8.54 | < 5.00 |  | 
CCCCNC(=O)CN1CCN(C(=O)n2nnn(-c3cccc(OC(F)(F)F)c3)c2=O)CC1 [Example 108, N-Butyl-2-{4-[5-oxo-4-(3-trifluoromethoxy-phenyl)-4,5-dihydro-tetrazole-1-carbonyl]-piperazin-1-yl}-acetamide] | 7.86 | < 5.00 |  | 

SMILES | pEC50 [1, 3] | pEC50 [2, 4] | pEC50 [1] | pEC50 [2]
CCCCNC(=O)CN1CCN(C(=O)n2nnn(-c3ccc(Cl)cc3)c2=O)CC1 [Example 109, N-Butyl-2-{4-[4-(4-chloro-phenyl)-5-oxo-4,5-dihydro-tetrazole-1-carbonyl]-piperazin-1-yl}-acetamide] | 8.38 | < 5.00 |  | 
COCCNC(=O)n1nnn(-c2cccc(F)c2)c1=O [Example 110, 4-(3-Fluoro-phenyl)-5-oxo-4,5-dihydro-tetrazole-1-carboxylic acid (2-methoxy-ethyl)-amide] | 6.01 | < 5.00 |  | 
CCOCCN(C)C(=O)n1nnn(-c2cccc(Cl)c2)c1=O [Example 111, 4-(3-Chloro-phenyl)-5-oxo-4,5-dihydro-tetrazole-1-carboxylic acid (2-ethoxy-ethyl)-methyl-amide] | 8.82 | < 5.00 |  | 
CCOCCN(C)C(=O)n1nnn(-c2cccc(OC(F)(F)F)c2)c1=O [Example 112, 5-Oxo-4-(3-trifluoromethoxy-phenyl)-4,5-dihydro-tetrazole-1-carboxylic acid (2-ethoxy-ethyl)-methyl-amide] |  |  | 8.39 | < 5.00
CCOCCN(C)C(=O)n1nnn(-c2ccc(Cl)cc2)c1=O [Example 113, 4-(4-Chloro-phenyl)-5-oxo-4,5-dihydro-tetrazole-1-carboxylic acid (2-ethoxy-ethyl)-methyl-amide] | 8.85 | < 5.00 |  | 
CCOC(=O)Cn1nnn(-c2cccc(Cl)c2)c1=O [Example 114, [4-(3-Chloro-phenyl)-5-oxo-4,5-dihydro-tetrazol-1-yl]-acetic acid ethyl ester] | 5.70 | < 5.00 |  | 
O=C(Cn1nnn(-c2cccc(Cl)c2)c1=O)N1CCOCC1 [Example 115, 1-(3-Chloro-phenyl)-4-(2-morpholin-4-yl-2-oxo-ethyl)-1,4-dihydro-tetrazol-5-one] | 5.70 | < 5.00 |  | 
CC(C(=O)N1CCCC1)N1CCN(C(=O)n2nnn(-c3cccc(Cl)c3)c2=O)CC1 (stereo not shown) [Example 116, 1-(3-Chloro-phenyl)-4-[4-(1-methyl-2-oxo-2-pyrrolidin-1-yl-ethyl)-piperazine-1-carbonyl]-1,4-dihydro-tetrazol-5-one] | 6.91 | < 5.00 |  | 
CC(C(=O)N1CCCC1)N1CCN(C(=O)n2nnn(-c3cccc(OC(F)(F)F)c3)c2=O)CC1 (stereo not shown) [Example 117, 1-[4-(1-Methyl-2-oxo-2-pyrrolidin-1-yl-ethyl)-piperazine-1-carbonyl]-4-(3-trifluoromethoxy-phenyl)-1,4-dihydro-tetrazol-5-one] | 6.97 | < 5.00 |  | 
CC(C(=O)N1CCCC1)N1CCN(C(=O)n2nnn(-c3ccc(Cl)cc3)c2=O)CC1 (stereo not shown) [Example 118, 1-(4-Chloro-phenyl)-4-[4-(1-methyl-2-oxo-2-pyrrolidin-1-yl-ethyl)-piperazine-1-carbonyl]-1,4-dihydro-tetrazol-5-one] | 6.94 | < 5.00 |  | 
O=C(N1CCOCC1)n1nnn(-c2ccccc2C(F)(F)F)c1=O [Example 119, 1-(morpholine-4-carbonyl)-4-[2-(trifluoromethyl)phenyl]tetrazol-5-one] | 6.41 | < 5.00 |  | 
O=C(N1CCOCC1)n1nnn(-c2cccc(C(F)(F)F)c2)c1=O [Example 120, 1-(morpholine-4-carbonyl)-4-[3-(trifluoromethyl)phenyl]tetrazol-5-one] | 8.04 | < 5.00 |  | 
O=C(N1CCOCC1)n1nnn(-c2ccc(C(F)(F)F)cc2)c1=O [Example 121, 1-(morpholine-4-carbonyl)-4-[4-(trifluoromethyl)phenyl]tetrazol-5-one] | 7.80 | < 5.00 |  | 
O=C(N1CCOCC1)n1nnn(-c2c(F)cccc2F)c1=O [Example 122, 1-(2,6-difluorophenyl)-4-(morpholine-4-carbonyl)tetrazol-5-one] |  |  | 7.72 | < 5.00
O=C(N1CCOCC1)n1nnn(-c2ccc(F)cc2F)c1=O [Example 123, 1-(2,4-difluorophenyl)-4-(morpholine-4-carbonyl)tetrazol-5-one] | 7.92 | < 5.00 |  | 
O=C(N1CCOCC1)n1nnn(-c2cc(F)ccc2F)c1=O [Example 124, 1-(2,5-difluorophenyl)-4-(morpholine-4-carbonyl)tetrazol-5-one] | 7.72 | < 5.00 |  | 
O=C(N1CCOCC1)n1nnn(-c2ccc(F)c(F)c2)c1=O [Example 125, 1-(3,4-difluorophenyl)-4-(morpholine-4-carbonyl)tetrazol-5-one] | 8.15 | < 5.00 |  | 
